Active and inactive are the calls of the source.
Key:
[1] = molecular target: T1, Corticotropin-releasing factor receptor 2/Corticotropin-releasing factor-binding protein (Homo sapiens, UniProt P24387+Q13324); assay: activators of CRF receptor 2 with binding protein – uHTS hits, confirmation (AID 602473); assay type: functional; details: read-out: EC50_Mean
T1 sequence (Q13324 whole entry): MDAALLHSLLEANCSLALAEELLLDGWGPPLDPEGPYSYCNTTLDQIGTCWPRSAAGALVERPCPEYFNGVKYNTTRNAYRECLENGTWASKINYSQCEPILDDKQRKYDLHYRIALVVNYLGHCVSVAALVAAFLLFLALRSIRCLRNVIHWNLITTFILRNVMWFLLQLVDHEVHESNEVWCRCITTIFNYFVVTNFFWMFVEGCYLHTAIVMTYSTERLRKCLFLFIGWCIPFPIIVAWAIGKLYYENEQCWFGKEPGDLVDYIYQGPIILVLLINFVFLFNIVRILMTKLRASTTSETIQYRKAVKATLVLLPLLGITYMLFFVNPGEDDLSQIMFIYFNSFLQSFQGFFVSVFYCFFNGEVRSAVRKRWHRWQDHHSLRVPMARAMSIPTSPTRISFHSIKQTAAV
T1 sequence (P24387 whole entry): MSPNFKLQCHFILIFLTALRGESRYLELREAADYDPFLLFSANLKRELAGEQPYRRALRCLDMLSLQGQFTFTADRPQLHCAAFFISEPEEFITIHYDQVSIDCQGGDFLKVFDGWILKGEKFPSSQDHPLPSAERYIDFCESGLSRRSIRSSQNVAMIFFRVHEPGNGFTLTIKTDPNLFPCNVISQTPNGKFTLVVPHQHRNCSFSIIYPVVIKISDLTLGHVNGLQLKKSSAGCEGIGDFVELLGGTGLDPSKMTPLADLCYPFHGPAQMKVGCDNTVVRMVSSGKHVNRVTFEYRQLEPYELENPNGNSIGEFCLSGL

[2] = molecular target: T2, Rac GTPase-activating protein 1 (Homo sapiens, UniProt Q9H0H5); assay: MgcRacGAP GTPase-activating activity inhibitors, confirmation, biochemical, ADP Hunter fluorescence, primary and confirmatory (AID 624330); assay type: functional
T2 sequence (Q9H0H5 whole entry): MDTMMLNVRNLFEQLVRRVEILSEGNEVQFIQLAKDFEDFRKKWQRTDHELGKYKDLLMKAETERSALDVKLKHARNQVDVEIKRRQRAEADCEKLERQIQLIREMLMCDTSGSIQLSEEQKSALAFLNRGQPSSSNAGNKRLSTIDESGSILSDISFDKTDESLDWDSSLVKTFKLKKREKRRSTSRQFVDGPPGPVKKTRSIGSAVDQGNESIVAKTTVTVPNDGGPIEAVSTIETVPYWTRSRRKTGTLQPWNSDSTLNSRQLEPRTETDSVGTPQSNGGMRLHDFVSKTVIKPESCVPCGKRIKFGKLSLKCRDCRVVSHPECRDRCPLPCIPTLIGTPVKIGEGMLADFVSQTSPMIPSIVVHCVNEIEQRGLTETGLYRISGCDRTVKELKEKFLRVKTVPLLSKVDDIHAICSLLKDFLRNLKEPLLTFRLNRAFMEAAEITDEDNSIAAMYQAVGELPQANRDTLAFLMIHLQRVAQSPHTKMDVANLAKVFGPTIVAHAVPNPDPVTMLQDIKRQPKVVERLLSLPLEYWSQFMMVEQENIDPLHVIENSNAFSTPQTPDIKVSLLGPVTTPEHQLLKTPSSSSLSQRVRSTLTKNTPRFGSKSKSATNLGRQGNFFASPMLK

Cytochrome P450 2C9 = Cytochrome P450 2C9 (Homo sapiens, UniProt P11712)
Cytochrome P450 1A2 = molecular target: T3, Cytochrome P450 1A2 (Homo sapiens, UniProt P05177);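 further: PubChem cytochrome P450 panel assay, CYP1A2 panel member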
T3 sequence (P05177 whole entry): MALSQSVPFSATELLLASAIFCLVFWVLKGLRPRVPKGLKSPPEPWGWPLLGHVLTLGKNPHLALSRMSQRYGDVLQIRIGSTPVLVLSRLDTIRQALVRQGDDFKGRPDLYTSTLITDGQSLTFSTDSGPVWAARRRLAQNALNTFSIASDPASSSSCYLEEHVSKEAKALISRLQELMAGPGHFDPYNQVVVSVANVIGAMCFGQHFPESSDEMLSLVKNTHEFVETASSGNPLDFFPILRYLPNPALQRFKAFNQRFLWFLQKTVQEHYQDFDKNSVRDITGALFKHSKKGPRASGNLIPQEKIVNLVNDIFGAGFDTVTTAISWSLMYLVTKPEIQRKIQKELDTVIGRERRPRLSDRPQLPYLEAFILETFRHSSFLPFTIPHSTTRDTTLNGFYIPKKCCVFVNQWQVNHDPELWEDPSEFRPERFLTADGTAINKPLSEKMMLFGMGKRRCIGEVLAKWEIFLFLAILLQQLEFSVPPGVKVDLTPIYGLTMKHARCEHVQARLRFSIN

Cytochrome P450 2C19 = Cytochrome P450 2C19 (Homo sapiens, UniProt P33261); assay: Cytochrome panel assay with activity outcomes. Panel member name: p450-cyp2c19 Compounds with AC50 equal or less than 10 uM are considered active; assay type: functional; details: read-out: AC50
Cytochrome P450 2D6 = Cytochrome P450 2D6 (Homo sapiens, UniProt P10635);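 further: CYP2D6 member of a cytochrome P450 panel assay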
Cytochrome P450 3A4 = Cytochrome P450 3A4 (Homo sapiens, UniProt P08684);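 further: CYP3A4 tested as one member of a cytochrome P450 panel screen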
[3] = HEp-2 cell cytotoxicity, dose response, cytotoxicity control for RSV inhibitor project, HTS (AID 2410); assay type: functional; details: human respiratory syncytial virus
[4] = Luminescence Cell-Based Dose Retest to Confirm Inhibitors of Cancer Stem Cells. [Related pubchem assays (depositor defined):AID2717, AID2721]; assay type: functional; details: Homo sapiens
[5] = system: Streptococcus sp. 'group A'; assay: growth inhibition of control SK(-) GAS strain, dose response, counter-screen for streptokinase expression inhibitor project, luminescence, kanamycin, BacTiterGlo, confirmation (AID 1900); assay type: functional, organism-based
Streptococcus = assay: Group A Streptococcus viability loss, dose response, counter-screen for streptokinase expression inhibitor project, luminescence, BacTiterGlo (AID 1915); assay type: functional, organism-based;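 further: potency for reduction of bacterial viability or growth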
[6] = molecular target: T1, Corticotropin-releasing factor receptor 2/Corticotropin-releasing factor-binding protein; assay: Dose Response confirmation of uHTS hits for small molecule antagonists of the CRF-binding protein and CRF-R2 receptor complex.; assay type: functional; details: read-out: IC50_Mean

Sequence of Cytochrome P450 3A4 (P08684 whole entry): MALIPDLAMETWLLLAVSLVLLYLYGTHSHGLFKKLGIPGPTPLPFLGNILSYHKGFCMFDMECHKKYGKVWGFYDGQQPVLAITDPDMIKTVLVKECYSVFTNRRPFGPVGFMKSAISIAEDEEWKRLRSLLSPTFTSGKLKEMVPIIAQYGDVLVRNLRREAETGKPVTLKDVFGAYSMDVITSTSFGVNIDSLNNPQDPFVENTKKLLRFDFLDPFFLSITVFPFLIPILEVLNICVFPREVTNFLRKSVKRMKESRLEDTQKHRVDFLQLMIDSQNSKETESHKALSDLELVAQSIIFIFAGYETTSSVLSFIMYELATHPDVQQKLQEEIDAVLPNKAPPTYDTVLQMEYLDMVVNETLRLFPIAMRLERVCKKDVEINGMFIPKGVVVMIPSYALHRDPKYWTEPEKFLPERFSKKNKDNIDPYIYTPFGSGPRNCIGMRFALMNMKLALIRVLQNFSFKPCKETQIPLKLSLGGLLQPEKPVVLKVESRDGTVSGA
Sequence of Cytochrome P450 2C9 (P11712 whole entry): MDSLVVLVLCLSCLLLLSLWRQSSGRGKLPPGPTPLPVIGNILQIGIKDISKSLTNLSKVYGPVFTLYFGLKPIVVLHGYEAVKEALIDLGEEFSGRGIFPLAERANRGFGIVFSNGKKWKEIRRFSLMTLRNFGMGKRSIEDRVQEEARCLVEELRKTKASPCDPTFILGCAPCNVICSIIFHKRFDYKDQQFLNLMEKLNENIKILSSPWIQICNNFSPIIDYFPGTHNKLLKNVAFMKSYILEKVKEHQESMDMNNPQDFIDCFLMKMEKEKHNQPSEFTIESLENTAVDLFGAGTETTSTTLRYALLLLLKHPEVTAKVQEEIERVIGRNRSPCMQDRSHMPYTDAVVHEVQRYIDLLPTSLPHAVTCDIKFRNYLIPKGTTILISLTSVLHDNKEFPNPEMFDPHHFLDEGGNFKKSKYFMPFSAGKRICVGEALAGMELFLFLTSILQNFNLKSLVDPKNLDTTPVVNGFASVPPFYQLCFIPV
Sequence of Cytochrome P450 2C19 (P33261 whole entry): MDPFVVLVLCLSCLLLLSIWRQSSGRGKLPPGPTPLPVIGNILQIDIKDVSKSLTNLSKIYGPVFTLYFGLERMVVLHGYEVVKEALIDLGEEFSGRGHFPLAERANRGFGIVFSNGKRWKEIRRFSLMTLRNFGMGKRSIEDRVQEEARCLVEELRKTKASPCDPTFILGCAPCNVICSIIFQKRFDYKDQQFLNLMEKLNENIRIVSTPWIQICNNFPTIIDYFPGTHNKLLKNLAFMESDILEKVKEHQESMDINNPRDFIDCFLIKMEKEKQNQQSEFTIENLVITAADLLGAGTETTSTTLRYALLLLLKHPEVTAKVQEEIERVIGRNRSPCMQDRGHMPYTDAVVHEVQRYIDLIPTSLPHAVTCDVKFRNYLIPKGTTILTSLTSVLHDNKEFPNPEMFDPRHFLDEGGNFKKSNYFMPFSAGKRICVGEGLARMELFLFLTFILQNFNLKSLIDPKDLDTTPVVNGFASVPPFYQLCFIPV
Sequence of Cytochrome P450 2D6 (P10635 whole entry): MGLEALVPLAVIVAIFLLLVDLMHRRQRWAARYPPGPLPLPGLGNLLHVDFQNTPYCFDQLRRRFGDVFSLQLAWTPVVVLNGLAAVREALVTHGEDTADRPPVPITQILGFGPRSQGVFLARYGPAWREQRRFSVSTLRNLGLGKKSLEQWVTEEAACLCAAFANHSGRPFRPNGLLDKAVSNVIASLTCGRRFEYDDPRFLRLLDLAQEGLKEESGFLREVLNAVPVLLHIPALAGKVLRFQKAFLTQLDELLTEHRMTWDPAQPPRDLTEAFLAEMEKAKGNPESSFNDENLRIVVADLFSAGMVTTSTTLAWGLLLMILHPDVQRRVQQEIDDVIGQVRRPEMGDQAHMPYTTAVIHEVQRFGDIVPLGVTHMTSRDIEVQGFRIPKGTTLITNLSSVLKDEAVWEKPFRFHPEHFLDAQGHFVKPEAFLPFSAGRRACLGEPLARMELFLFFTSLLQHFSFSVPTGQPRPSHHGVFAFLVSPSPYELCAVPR

SMILES: CCCc1nnc(NC(=O)Cn2c(=O)oc3cc(Br)ccc32)s1
- EC50 [1]: 9.87 µM (active)

SMILES: COc1cc(/C=C/C(=O)OCC(=O)NC2CCS(=O)(=O)C2)ccc1O (configuration not stated)
- IC50 [2]: 47.1 µM (active)

SMILES: CCCCCCC[n+]1ccc(-c2cc[n+](CCCCCCC)cc2)cc1
- AC50 (Cytochrome P450 2C9): 39.8 µM (inconclusive)
- AC50 (Cytochrome P450 1A2): 31.6 µM (inconclusive)
- AC50 (Cytochrome P450 2C19): 10 µM (inconclusive)

SMILES: CC(Oc1ccc(Cl)cc1Cl)C(=O)/C=C/N(C)C (configuration not stated)
- AC50 (Cytochrome P450 2D6): 14.1 µM (inconclusive)
- AC50 (Cytochrome P450 2C9): 12.6 µM (inconclusive)
- AC50 (Cytochrome P450 3A4): 25.1 µM (inconclusive)

SMILES: O=C(CSc1ccc(C(F)(F)F)cc1[N+](=O)[O-])Nc1ccccc1
- AC50 (Cytochrome P450 1A2): 1.26 µM (inconclusive)
- AC50 (Cytochrome P450 3A4): 15.8 µM (inconclusive)

SMILES: O=C(NCCC1=CCCCC1)C1CCCN(c2nc3ccccc3o2)C1 (configuration not stated)
- AC50 (Cytochrome P450 2D6): 14.1 µM (inconclusive)
- AC50 (Cytochrome P450 1A2): 15.8 µM (inconclusive)

SMILES: Cc1cccc(CNc2ccnc(-c3ccccc3Cl)n2)c1
- AC50 (Cytochrome P450 2C9): 0.794 µM (inconclusive)

SMILES: O=Nc1c(O)n(Cc2ccc(Cl)cc2)c2ccccc12
- CC50 [3]: 38.5 µM (active)
- AC50 (Cytochrome P450 2D6): 25.1 µM (inconclusive)

SMILES: CN1/C(=C/C=C(/C#N)C(N)=O)C(C)(C)c2ccccc21
- AC50 (Cytochrome P450 2C9): 28.2 µM (inconclusive)
- AC50 (Cytochrome P450 3A4): 22.4 µM (inconclusive)

SMILES: Cc1ccc(CNC(=O)C2(NC(=O)Nc3ccc(C)cc3)CCCCC2)cc1
- AC50 (Cytochrome P450 2C9): 3.55 µM (inconclusive)
- AC50 (Cytochrome P450 2C19): 1.78 µM (inconclusive)

SMILES: Cc1ccc(OCC(=O)NNC(=O)C2CCN(c3ncccn3)CC2)cc1
- AC50 (Cytochrome P450 2C9): 14.1 µM (inconclusive)
- AC50 (Cytochrome P450 2C19): 0.501 µM (inconclusive)
- AC50 (Cytochrome P450 3A4): 20 µM (inconclusive)

SMILES: COc1ccc(-c2sc3ccc(OC)cc3c2C#CCCO)cc1
- AC50 [4]: 2.88 µM (active)
- EC50 [5]: 7.3 µM (active)
- EC50 (Streptococcus): 9.32 µM (active)

SMILES: CCOC(=O)C1CCN(c2ncnc3c2nnn3Cc2ccccc2Cl)CC1
- IC50 [6]: > 47.1 µM (inactive)
- EC50 [1]: > 53 µM (inactive)

SMILES: CCOC(=O)c1sc2nc(C)n(CC(=O)NCC3CCCO3)c(=O)c2c1C (configuration not stated)
- IC50 [6]: > 47.1 µM (inactive)
- EC50 [1]: > 53 µM (inactive)

SMILES: O=S(=O)(Cc1ccccc1)N1CCC(c2nc(O)c3nnn(Cc4cccc(Cl)c4)c3n2)CC1
- CC50 [3]: 48.9 µM (active)

SMILES: O=C(NCc1ccco1)c1cc(C(=O)C2CCCCC2)c[nH]1
- AC50 (Cytochrome P450 2C9): 8.91 µM (inconclusive)
- AC50 (Cytochrome P450 2C19): 14.1 µM (inconclusive)

SMILES: COc1ccc(-n2c(Cc3cccc([N+](=O)[O-])c3)nc3ccccc3c2=O)cc1
- CC50 [3]: > 50 µM (active)

SMILES: COc1ccccc1NS(=O)(=O)c1cc(C(=O)NCCC(C)C)ccc1F
- EC50 [1]: 8.2 µM (active)

SMILES: C/C(CCN1CCc2nc(-c3ccccc3)c(-c3ccccc3)cc2C1)=N\O[C@@H](C)c1cc(-c2c(C)cc(C)cc2C)no1
- AC50 (Cytochrome P450 2C9): 0.316 µM (inconclusive)
- AC50 (Cytochrome P450 2C19): 0.00631 µM (inconclusive)
- AC50 (Cytochrome P450 3A4): 3.98 µM (inconclusive)

SMILES: COc1ccc(-n2c(=O)c(-c3cc(F)cc(F)c3)nc3cnc(N4CCNCC4)nc32)cc1
- AC50 (Cytochrome P450 1A2): 12.6 µM (inconclusive)
- AC50 (Cytochrome P450 3A4): 25.1 µM (inconclusive)

SMILES: CN1CCc2nc3sc(C(=O)NC(C)(C)C)c(N)c3cc2C1
- AC50 (Cytochrome P450 1A2): 14.1 µM (inconclusive)
- AC50 (Cytochrome P450 2C19): 31.6 µM (inconclusive)

SMILES: CN(C)S(=O)(=O)c1ccc(C(=O)Nc2ccc(CN3CCCC3)cc2)cc1
- AC50 (Cytochrome P450 2C9): 1.78 µM (inconclusive)

— ChEMBL document CHEMBL1201862, “PubChem BioAssay data set” (2004)
